From ChEMBL document CHEMBL1201862, “PubChem BioAssay data set” (2004)
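Briefly, cells in 96-well plates were exposed to five compound concentrations for 48 h, and endpoints were estimated by linear interpolation. At the GI50, growth is halved.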 Activity calls are given as the source filed them. Cut-off read from the data, not from the text of the source: active = GI50 up to about 1.1 µM and inactive = higher.

How the values were obtained:
Assay in all cases: DTP human tumour cell line panel, 48 h
MDA-MB-231 = tested on: MDA-MB-231
MDA-MB-435 = tested on: MDA-MB-435
SW-620 = tested on: SW-620
T47D = tested on: T47D
A498 = tested on: A498
RPMI-8226 = tested on: RPMI-8226
OVCAR-5 = tested on: OVCAR-5
HCC 2998 = tested on: HCC 2998
SK-OV-3 = tested on: SK-OV-3
COLO 205 = tested on: COLO 205
PC-3 = tested on: PC-3
786-0 = tested on: 786-0
HL-60 = tested on: HL-60
Malme-3M = tested on: Malme-3M
MOLT-4 = tested on: MOLT-4
MCF7 = tested on: MCF7
M14 = tested on: M14
HOP-92 = tested on: HOP-92
NCI-H226 = tested on: NCI-H226
DU-145 = tested on: DU-145
SF-268 = tested on: SF-268
SK-MEL-5 = tested on: SK-MEL-5
SF-539 = tested on: SF-539
SN12C = tested on: SN12C
OVCAR-8 = tested on: OVCAR-8
SK-MEL-2 = tested on: SK-MEL-2
NCI-H23 = tested on: NCI-H23
HT-29 = tested on: HT-29
HCT-116 = tested on: HCT-116
SNB-75 = tested on: SNB-75
A549 = tested on: A549
U-251 = tested on: U-251
ACHN = tested on: ACHN
SK-MEL-28 = tested on: SK-MEL-28
NCI-H460 = tested on: NCI-H460
MDA-N = tested on: MDA-N
UACC-62 = tested on: UACC-62
OVCAR-4 = tested on: OVCAR-4
HOP-62 = tested on: HOP-62
KM12 = tested on: KM12
RXF 393 = tested on: RXF 393
SNB-19 = tested on: SNB-19
CCRF-CEM = tested on: CCRF-CEM
OVCAR-3 = tested on: OVCAR-3
NCI/ADR-RES = tested on: NCI/ADR-RES
BT-549 = tested on: BT-549
IGROV-1 = tested on: IGROV-1
Hs-578T = tested on: Hs-578T
CAKI-1 = tested on: CAKI-1
TK-10 = tested on: TK-10
NCI-H522 = tested on: NCI-H522
HCT-15 = tested on: HCT-15
SF-295 = tested on: SF-295
UO-31 = tested on: UO-31
UACC-257 = tested on: UACC-257
EKVX = tested on: EKVX
K562 = tested on: K562
LOX IMVI = tested on: LOX IMVI
SR = tested on: SR

SMILES: CC/C(Cl)=N\OC(=O)Nc1ccc(F)cc1F
- GI50 (MDA-MB-231): 17.5 µM (inactive)
- GI50 (MDA-MB-435): 17 µM (inactive)
- GI50 (SW-620): 1.93 µM (inactive)
- GI50 (T47D): 6.28 µM (inactive)
- GI50 (A498): 28.3 µM (inactive)
- GI50 (RPMI-8226): 1.49 µM (inactive)
- GI50 (OVCAR-5): 17.9 µM (inactive)
- GI50 (HCC 2998): 19.3 µM (inactive)
- GI50 (SK-OV-3): 19.3 µM (inactive)
- GI50 (COLO 205): 1.91 µM (inactive)
- GI50 (PC-3): 17.7 µM (inactive)
- GI50 (786-0): 4.38 µM (inactive)
- GI50 (HL-60): 1.91 µM (inactive)
- GI50 (Malme-3M): 2.9 µM (inactive)
- GI50 (MOLT-4): 1.55 µM (inactive)
- GI50 (MCF7): 7.78 µM (inactive)
- GI50 (M14): 7.6 µM (inactive)
- GI50 (HOP-92): 1.93 µM (inactive)
- GI50 (NCI-H226): 17.9 µM (inactive)
- GI50 (DU-145): 17.6 µM (inactive)
- GI50 (SF-268): 24.1 µM (inactive)
- GI50 (SK-MEL-5): 6.12 µM (inactive)
- GI50 (SF-539): 7.01 µM (inactive)
- GI50 (SN12C): 5.73 µM (inactive)
- GI50 (OVCAR-8): 19.8 µM (inactive)
- GI50 (SK-MEL-2): 17.4 µM (inactive)
- GI50 (NCI-H23): 20 µM (inactive)
- GI50 (HT-29): 21.3 µM (inactive)
- GI50 (HCT-116): 6.62 µM (inactive)
- GI50 (SNB-75): 20.6 µM (inactive)
- GI50 (A549): 19.9 µM (inactive)
- GI50 (U-251): 22.4 µM (inactive)
- GI50 (ACHN): 1.89 µM (inactive)
- GI50 (SK-MEL-28): 17.7 µM (inactive)
- GI50 (NCI-H460): 29.1 µM (inactive)
- GI50 (MDA-N): 5.87 µM (inactive)
- GI50 (UACC-62): 15.2 µM (inactive)
- GI50 (OVCAR-4): 17.9 µM (inactive)
- GI50 (HOP-62): 21 µM (inactive)
- GI50 (KM12): 19.9 µM (inactive)
- GI50 (RXF 393): 12.8 µM (inactive)
- GI50 (SNB-19): 25.4 µM (inactive)
- GI50 (CCRF-CEM): 1.54 µM (inactive)
- GI50 (OVCAR-3): 17 µM (inactive)
- GI50 (NCI/ADR-RES): 17.8 µM (inactive)
- GI50 (BT-549): 2.38 µM (inactive)
- GI50 (IGROV-1): 15.9 µM (inactive)
- GI50 (Hs-578T): 32.2 µM (inactive)
- GI50 (CAKI-1): 1.71 µM (inactive)
- GI50 (TK-10): 12 µM (inactive)
- GI50 (NCI-H522): 1.54 µM (inactive)
- GI50 (HCT-15): 2.34 µM
- GI50 (SF-295): 26.4 µM (inactive)
- GI50 (UO-31): 14.9 µM (inactive)
- GI50 (UACC-257): 17.3 µM (inactive)
- GI50 (EKVX): 8.55 µM (inactive)
- GI50 (K562): 0.244 µM (active)
- GI50 (LOX IMVI): 2.5 µM (inactive)

SMILES: CCOC(=O)C(NCc1cccc(C(F)(F)F)c1)(NC(=O)CC)C(F)(F)F (configuration not stated)
- GI50 (MDA-MB-231): 31.8 µM (inactive)
- GI50 (MDA-MB-435): > 100 µM (inactive)
- GI50 (SW-620): > 100 µM (inactive)
- GI50 (T47D): 62.4 µM (inactive)
- GI50 (RPMI-8226): 26 µM (inactive)
- GI50 (OVCAR-5): > 100 µM (inactive)
- GI50 (HCC 2998): > 100 µM (inactive)
- GI50 (SK-OV-3): > 100 µM (inactive)
- GI50 (COLO 205): > 100 µM (inactive)
- GI50 (PC-3): 95.5 µM (inactive)
- GI50 (786-0): > 100 µM (inactive)
- GI50 (HL-60): 58.5 µM (inactive)
- GI50 (Malme-3M): > 100 µM (inactive)
- GI50 (MOLT-4): 82.6 µM (inactive)
- GI50 (MCF7): > 100 µM (inactive)
- GI50 (M14): > 100 µM (inactive)
- GI50 (HOP-92): 71 µM (inactive)
- GI50 (NCI-H226): > 100 µM (inactive)
- GI50 (DU-145): > 100 µM (inactive)
- GI50 (SF-268): > 100 µM (inactive)
- GI50 (SK-MEL-5): > 100 µM (inactive)
- GI50 (SF-539): > 100 µM (inactive)
- GI50 (SN12C): > 100 µM (inactive)
- GI50 (OVCAR-8): > 100 µM (inactive)
- GI50 (SK-MEL-2): > 100 µM (inactive)
- GI50 (NCI-H23): > 100 µM (inactive)
- GI50 (HT-29): > 100 µM (inactive)
- GI50 (HCT-116): > 100 µM (inactive)
- GI50 (SNB-75): 63.5 µM (inactive)
- GI50 (A549): 44.2 µM (inactive)
- GI50 (U-251): > 100 µM (inactive)
- GI50 (ACHN): > 100 µM (inactive)
- GI50 (SK-MEL-28): > 100 µM (inactive)
- GI50 (MDA-N): > 100 µM (inactive)
- GI50 (UACC-62): 96.6 µM (inactive)
- GI50 (OVCAR-4): > 100 µM (inactive)
- GI50 (HOP-62): > 100 µM (inactive)
- GI50 (KM12): > 100 µM (inactive)
- GI50 (RXF 393): 5.52 µM (inactive)
- GI50 (SNB-19): > 100 µM (inactive)
- GI50 (CCRF-CEM): > 100 µM (inactive)
- GI50 (OVCAR-3): > 100 µM (inactive)
- GI50 (NCI/ADR-RES): > 100 µM (inactive)
- GI50 (BT-549): > 100 µM (inactive)
- GI50 (IGROV-1): 18 µM (inactive)
- GI50 (Hs-578T): > 100 µM (inactive)
- GI50 (CAKI-1): > 100 µM (inactive)
- GI50 (TK-10): > 100 µM (inactive)
- GI50 (SR): > 100 µM (inactive)
- GI50 (NCI-H522): > 100 µM (inactive)
- GI50 (HCT-15): > 100 µM
- GI50 (SF-295): > 100 µM (inactive)
- GI50 (UO-31): 51.8 µM (inactive)
- GI50 (UACC-257): > 100 µM (inactive)
- GI50 (EKVX): 68.5 µM (inactive)
- GI50 (K562): > 100 µM (inactive)
- GI50 (LOX IMVI): > 100 µM (inactive)

SMILES: C=CCCCCOC1C=CC(O)C(CO)O1 (configuration not stated)
- GI50 (MDA-MB-231): > 100 µM (inactive)
- GI50 (MDA-MB-435): > 100 µM (inactive)
- GI50 (SW-620): > 100 µM (inactive)
- GI50 (T47D): > 100 µM (inactive)
- GI50 (A498): > 100 µM (inactive)
- GI50 (RPMI-8226): > 100 µM (inactive)
- GI50 (OVCAR-5): > 100 µM (inactive)
- GI50 (HCC 2998): > 100 µM (inactive)
- GI50 (SK-OV-3): > 100 µM (inactive)
- GI50 (COLO 205): > 100 µM (inactive)
- GI50 (PC-3): > 100 µM (inactive)
- GI50 (786-0): > 100 µM (inactive)
- GI50 (HL-60): > 100 µM (inactive)
- GI50 (Malme-3M): > 100 µM (inactive)
- GI50 (MOLT-4): > 100 µM (inactive)
- GI50 (MCF7): > 100 µM (inactive)
- GI50 (M14): > 100 µM (inactive)
- GI50 (HOP-92): > 100 µM (inactive)
- GI50 (NCI-H226): > 100 µM (inactive)
- GI50 (DU-145): > 100 µM (inactive)
- GI50 (SF-268): > 100 µM (inactive)
- GI50 (SK-MEL-5): > 100 µM (inactive)
- GI50 (SF-539): > 100 µM (inactive)
- GI50 (SN12C): > 100 µM (inactive)
- GI50 (OVCAR-8): > 100 µM (inactive)
- GI50 (SK-MEL-2): > 100 µM (inactive)
- GI50 (NCI-H23): > 100 µM (inactive)
- GI50 (HT-29): > 100 µM (inactive)
- GI50 (HCT-116): > 100 µM (inactive)
- GI50 (A549): > 100 µM (inactive)
- GI50 (U-251): > 100 µM (inactive)
- GI50 (ACHN): > 100 µM (inactive)
- GI50 (SK-MEL-28): > 100 µM (inactive)
- GI50 (NCI-H460): > 100 µM (inactive)
- GI50 (MDA-N): > 100 µM (inactive)
- GI50 (UACC-62): > 100 µM (inactive)
- GI50 (OVCAR-4): > 100 µM (inactive)
- GI50 (HOP-62): > 100 µM (inactive)
- GI50 (KM12): > 100 µM (inactive)
- GI50 (RXF 393): > 100 µM (inactive)
- GI50 (SNB-19): > 100 µM (inactive)
- GI50 (CCRF-CEM): > 100 µM (inactive)
- GI50 (OVCAR-3): > 100 µM (inactive)
- GI50 (NCI/ADR-RES): > 100 µM (inactive)
- GI50 (BT-549): > 100 µM (inactive)
- GI50 (IGROV-1): > 100 µM (inactive)
- GI50 (Hs-578T): 30.1 µM (inactive)
- GI50 (CAKI-1): > 100 µM (inactive)
- GI50 (TK-10): > 100 µM (inactive)
- GI50 (NCI-H522): > 100 µM (inactive)
- GI50 (HCT-15): > 100 µM
- GI50 (SF-295): > 100 µM (inactive)
- GI50 (UO-31): > 100 µM (inactive)
- GI50 (UACC-257): > 100 µM (inactive)
- GI50 (EKVX): > 100 µM (inactive)
- GI50 (K562): > 100 µM (inactive)
- GI50 (LOX IMVI): > 100 µM (inactive)
